Measured values: patent US6949255B2, “Inhibitory chemical formulation with preservative system” (priority 2000, dated 2005)

Tests used:
VSV = type: cell-based, vesicular stomatitis virus
HIV = conditions: among prostitutes; Kreiss et al., JAMA 1992; cited from earlier work
[1] = tested on: vesicular stomatitis virus (VSV); type: cell-based

Compound	concentrations at which toxicity activity was absent (L-929 cells; mouse)	killing of L-929 cells (toxicity titer) (L-929 cells; mouse)	inhibition of VSV (VSV)	L-929 toxicity titer (L-929 cells; mouse)	concentrations at which inhibitory activity was absent (VSV)	killing of L-929 cells (L-929 cells)	risk of HIV infection with use (HIV)	inhibition of multiplication of VSV [1]
COC(=O)c1ccc(O)cc1 [Methylparaben]	< 0.2%	greater than 300 fold	approximately 30 fold					
CCCOC(=O)c1ccc(O)cc1 [Proplyparaben, propylparaben]	< 0.004%		approximately 55 fold	approximately 15 fold	< 0.004%			
CC(O)CO (centres unmarked) [Propylene G, propylene glycol]			almost no inhibition			almost no inhibition or killing at all		
OCC(O)CO [glycerol]	below 8%		greater than 10 fold		below 8%			
Nonoxynol-9 [Nonoxynol-9®]							increased risk of HIV infection	almost identical degree of inhibition
